Tests used:
Nav1.7 transcript = assay: In vitro Nav1.7 repression by qPCR in transfected Neuro2a cells; type: cell-based, mouse; details: qPCR relative to GAPDH, KRAB-dCas9 constructs compared to the non-targeting gRNA control
Protocol: Mammalian Cell Culture. Neuro2a cells were grown in EMEM supplemented with 10% fetal bovine serum (FBS) and 1% Antibiotic-Antimycotic (Thermo Fisher Scientific) in an incubator at 37° C. and 5% CO2 atmosphere.
Lipid-Mediated Cell Transfections. One day prior to transfection, Neuro2a cells were seeded in a 24-well plate at a cell density of 1 or 2E+5 cells per well. […] of each plasmid was added to 25 μL of Opti-MEM medium, followed by addition of 25 μL of Opti-MEM containing 2 μL of Lipofectamine 2000. The mixture was incubated at room temperature for 15 min. The entire solution was then added to the cells in a 24-well plate and mixed by gently swirling the plate. Media was changed after 24 h, and the plate was incubated at 37° C. for 72 h in a 5% CO2 incubator. Cells were harvested, spun down, and frozen at […].
Gene Expression Analysis and qPCR. RNA from Neuro2a cells was extracted using Rneasy Kit (QIAGEN; 74104) and from DRG using Rneasy Micro Kit (QIAGEN; 74004). cDNA was synthesized from RNA using Protoscript II Reverse Transcriptase Kit (NEB; E6560L). […] Relative mRNA expression was normalized to GAPDH levels and fold change was calculated using the comparative CT (AACT) method and normalized to GAPDH. Mean fold change and SD were calculated using Microsoft Excel. […]

NaV1.7 = assay: In vivo Nav1.7 repression in mice DRG (L4-L6) by qPCR after intrathecal AAV9; set-up: species or system mouse; details: gabapentin benchmarking experiment; 24 h after carrageenan; vs AAV9-mCherry
Protocol: (§1) Intrathecal AAV Injections. Anesthesia was induced with 2.5% isoflurane delivered in equal parts O2 and room air in a closed chamber until a loss of the righting reflex was observed. The lower back of mice was shaven and swabbed with 70% ethanol. Mice were then intrathecally (i.t.) injected using a Hamilton syringe and 30G needle as previously described 104 between vertebrae L4 and L5 with 5 μL of AAV for a total of 1E+12 vg/mouse. A tail flick was considered indicative of appropriate needle placement. Following injection, all mice resumed motor activity consistent with that observed prior to i.t. injection.
Tissue collection. […]
Gene Expression Analysis and qPCR. […] Relative mRNA expression was normalized to GAPDH levels and fold change was calculated using the comparative CT (AACT) method and normalized to GAPDH. Mean fold change and SD were calculated using Microsoft Excel.
Having established in vitro Nav1.7 repression, testing the effectiveness of the best ZFP-KRAB and KRAB-dCas9 constructs from the in vitro screens (Zinc-Finger-4-KRAB and KRAB-dCas9-dual-gRNA) in a carrageenan-induced model of inflammatory pain was performed. […] After 21 days, thermal pain sensitivity was measured to establish a baseline response threshold. […]

[1] = test system: carrageenan-induced model of inflammatory pain; assay: Carrageenan-induced inflammatory pain model, thermal paw withdrawal latency (Hargreaves test); type: in vivo, mouse; details: gabapentin 100 mg/kg i.p.
Protocol: Animals Experiments. All animal procedures were performed in accordance with protocols approved by the Institutional Animal Care and Use Committee (IACUC) of the University of California, San Diego. All mice were acquired from Jackson Laboratory. Two-month-old adult male C57BL/6 mice (25-30 g) were housed with food and water provided ad libitum, under a 12 h light/dark cycle with up to 5 mice per cage. All behavioral tests were performed during the light cycle period.
Intrathecal AAV Injections. Anesthesia was induced with 2.5% isoflurane delivered in equal parts O2 and room air in a closed chamber until a loss of the righting reflex was observed. The lower back of mice was shaven and swabbed with 70% ethanol. Mice were then intrathecally (i.t.) injected using a Hamilton syringe and 30G needle as previously described 104 between vertebrae L4 and L5 with 5 μL of AAV for a total of 1E+12 vg/mouse. A tail flick was considered indicative of appropriate needle placement. […]
Pain Models. […] Paw thickness was measured with a caliper before and 4 h after carrageenan/saline injections as an index of edema/inflammation. […]
Thermal Withdrawal Latency (Hargreaves Test): To determine the acute nociceptive thermal threshold, the Hargreaves' test was conducted using a plantar test device (Ugo Basile, Italy) 108. […] Paw withdrawal latencies were measured with a cutoff time of 30 seconds. […]

[2] = test system: paclitaxel-induced neuropathy; assay: Paclitaxel-induced neuropathic pain model, tactile allodynia (von Frey filaments); type: in vivo, mouse; details: 21 days after i.t. injection, 24 h after last paclitaxel (4 x 8 mg/kg i.p.); gabapentin 100 mg/kg i.p.
Protocol: as §1
Paclitaxel-induced neuropathy: Paclitaxel (Tocris Biosciences, 1097) was dissolved in a mixture of 1:1:18 [1 volume ethanol/1 volume Cremophor EL (Millipore, 238470)/18 volumes of sterilized 0.9% (W/V) NaCl solution]. […]
Tactile allodynia: For the BzATP pain model, tactile thresholds (allodynia) were assessed 30 minutes, 1, 2, 3, 6, 24 hours after the BzATP injection. For the Paclitaxel model, tactile thresholds (allodynia) were assessed 24 hours and 29 days after the last Paclitaxel injection. […] The 50% probability of withdrawal threshold was assessed using von Frey filaments (Seemes Weinstein von Frey anesthesiometer; Stoelting Co., Wood Dale, Ill., USA) ranging from 2.44 to 4.31 (0.04-2.00 g) in an up-down method, as previously described 107. […]

Compound: gRNA-2: guide RNA spacer GCAGGTGCACTCACCGGGT (SEQ ID NO: 130), used with KRAB-dCas9 (listed as DNA, chemistry not given here)
- repression of the Nav1.7 transcript (Nav1.7 transcript): 56%

Compound: NCC1(CC(=O)O)CCCCC1 [gabapentin]
- repression of Nav1.7 in DRG (L4-L6) by qPCR, significance (NaV1.7): significant repression of Nav1.7
- PWL of carrageenan-injected paws at each time point vs AAV9-mCherry control (two-way ANOVA) ([1]; 30 min, 1, 2, 4, 24 h after carrageenan, AAV9 1E+12 vg/mouse i.t.): at the 30 minute, 1 hour, and four hour time points, but not the 24 hour time point
- PWL (AUC of thermal hyperalgesia) in carrageenan-injected paws vs AAV9-mCherry control ([1]; gabapentin benchmarking experiment, day 21): significant increase in PWL
- 50% tactile withdrawal threshold / tactile allodynia (von Frey) [2]: increased withdrawal thresholds
